The text below walks through data of patent US12509420B2, “Compound as a UBR box domain ligand” (AUTOTAC INC., priority 2020, dated 2025).

Peptide text beside a SMILES is read from it. * marks the point of attachment. Cbz = O=C(OCc1ccccc1)*

The test system of assay [1] is UBR1. In words: Inhibition of R-nsP4 degradation by in vitro transcription/translation method. It counts as biochemical. The settings on record: compound 1 uM, 30° C. for 40 minutes, DHFR-Ub-R-nsP4 plasmid, compared to the control. As for the experimental part: A TnT® Quick Coupled Transcription/Translation System kit was used to confirm the R-nsP4 expression of the compounds. After a pre-mix was made using Transcend Biotin-Lysyl-tRNA, methionine, bestatin, a TnTquick Master mix and a DHFR-Ub-R-nsP4 plasmid, the pre-mix was mixed with a compound (1 uM). After each sample was reacted at 30° C. for 40 minutes, a 5×SDS loading dye was added thereto. After the resulting mixture was reacted at 95° C. for 2 minutes, 5 uL was taken and aliquoted into each well of an acrylamide gel, and then an immunoblotting method was performed, and the experimental results are illustrated in [FIG. 2]. For an in vitro transcription/translation method, a representative experiment was schematized from three or more independent experiments.

In assay [2] the target is T1, UBR1 (Rattus norvegicus, UniProt A0A8I5ZK69).
T1 construct: endogenous in cells; host or cells: L6 rat muscle-derived cells
T1 sequence (A0A8I5ZK69 1-1749): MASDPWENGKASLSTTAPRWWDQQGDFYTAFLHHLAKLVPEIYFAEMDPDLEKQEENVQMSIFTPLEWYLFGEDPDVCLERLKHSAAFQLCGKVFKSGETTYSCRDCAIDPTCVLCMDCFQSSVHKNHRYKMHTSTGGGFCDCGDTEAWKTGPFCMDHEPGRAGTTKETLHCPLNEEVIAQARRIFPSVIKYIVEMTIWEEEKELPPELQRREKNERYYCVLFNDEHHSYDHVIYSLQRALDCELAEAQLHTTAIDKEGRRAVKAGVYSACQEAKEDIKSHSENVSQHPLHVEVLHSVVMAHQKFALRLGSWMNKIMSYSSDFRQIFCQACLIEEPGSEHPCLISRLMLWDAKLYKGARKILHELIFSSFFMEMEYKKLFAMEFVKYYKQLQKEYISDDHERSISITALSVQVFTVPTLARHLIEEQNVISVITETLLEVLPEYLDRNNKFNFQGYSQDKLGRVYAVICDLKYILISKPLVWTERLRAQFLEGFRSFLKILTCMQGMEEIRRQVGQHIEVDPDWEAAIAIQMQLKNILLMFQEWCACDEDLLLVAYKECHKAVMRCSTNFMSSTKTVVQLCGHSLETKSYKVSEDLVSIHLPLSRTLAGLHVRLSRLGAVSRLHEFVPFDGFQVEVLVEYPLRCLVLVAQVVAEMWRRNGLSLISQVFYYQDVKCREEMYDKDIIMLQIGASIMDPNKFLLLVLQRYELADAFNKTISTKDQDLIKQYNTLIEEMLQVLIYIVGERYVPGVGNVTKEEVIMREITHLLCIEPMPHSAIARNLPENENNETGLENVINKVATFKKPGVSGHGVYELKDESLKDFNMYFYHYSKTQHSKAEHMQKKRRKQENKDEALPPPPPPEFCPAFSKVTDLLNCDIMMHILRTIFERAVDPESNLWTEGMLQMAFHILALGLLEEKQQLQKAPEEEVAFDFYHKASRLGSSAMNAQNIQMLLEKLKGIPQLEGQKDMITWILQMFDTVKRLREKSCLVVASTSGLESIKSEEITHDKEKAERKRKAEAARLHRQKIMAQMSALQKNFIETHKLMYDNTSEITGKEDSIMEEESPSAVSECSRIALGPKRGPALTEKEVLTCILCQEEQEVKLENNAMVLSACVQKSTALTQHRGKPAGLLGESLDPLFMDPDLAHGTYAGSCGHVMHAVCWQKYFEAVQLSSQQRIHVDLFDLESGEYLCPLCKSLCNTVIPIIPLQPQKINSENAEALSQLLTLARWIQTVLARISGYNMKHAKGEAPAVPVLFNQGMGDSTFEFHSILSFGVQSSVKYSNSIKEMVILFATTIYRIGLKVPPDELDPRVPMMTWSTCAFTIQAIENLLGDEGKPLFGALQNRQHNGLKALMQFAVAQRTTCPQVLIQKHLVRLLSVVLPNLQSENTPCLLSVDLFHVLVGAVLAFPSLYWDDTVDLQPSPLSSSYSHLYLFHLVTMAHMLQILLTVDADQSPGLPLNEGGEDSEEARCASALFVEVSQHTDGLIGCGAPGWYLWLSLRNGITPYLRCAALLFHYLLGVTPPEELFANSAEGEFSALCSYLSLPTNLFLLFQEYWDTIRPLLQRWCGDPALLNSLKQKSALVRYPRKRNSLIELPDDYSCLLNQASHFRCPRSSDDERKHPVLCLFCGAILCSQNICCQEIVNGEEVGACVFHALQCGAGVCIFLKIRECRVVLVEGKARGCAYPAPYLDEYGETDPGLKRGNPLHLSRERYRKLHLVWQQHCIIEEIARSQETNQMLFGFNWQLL
In words: Inhibition of muscle cell actin degradation by immunoblotting (L6 cells). It counts as cell-based. The settings on record: compound 5 uM alone, 24 hours, immunoblot. As for the experimental part:
To evaluate the actin degradation of compounds in muscle cells, a L6 cell line, which is a rat muscle-derived cell, was cultured using a DMEM medium containing 10% FBS and 1% streptomycin/penicillin in an incubator in which 5% carbon dioxide was maintained. In order to measure the UBR1 binding strength according to the treatment with a representative compound selected from the present compounds, cells were aliquoted into a 12-well plate. The cells were additionally cultured for 24 hours so as to be completely attached to the surface of the plate. […] To extract proteins from the collected cells, 50 uL of a lysis buffer (20 mM Tris, pH 7.4, 150 mM NaCl, 1% Triton-X-100, 2 mM NaF, 2 mM EDTA, 2 mM b-glycerophosphate, 5 mM sodium orthovanadate, 1 mM PMSF, leupeptin, aprotenin) was injected into each sample, and the cells were lysed. A sample buffer was added to each sample based on the measured total protein concentration, and the mixture was reacted at 100° C. for 5 minutes. After 5 uL was taken from the completely reacted sample and aliquoted into each well of an acrylamide gel, an immunoblotting method was performed, and the experimental results were illustrated in [FIG. 3]. For the immunoblotting method, a representative experiment was schematized from three or more independent experiments.
In general terms: A western blot detects proteins with antibodies after separation by electrophoresis.

A further assay deals with L6 cell line. In words: Immunoblotting of muscle actin levels in L6 cells after MG132 treatment. It counts as cell-based, rat. The settings on record: MG132 10 uM alone, 24 hours, immunoblot, compared to a control. On the procedure:
A L6 cell line, which is a rat muscle-derived cell, was cultured using a DMEM medium containing 10% FBS and 1% streptomycin/penicillin in an incubator in which 5% carbon dioxide was maintained, and cells were aliquoted into a 12-well plate after the culture. The cells were additionally cultured for 24 hours so as to be completely attached to the surface of the plate. To confirm whether MG132 increased UBR1 binding, cells were collected after treatment with MG132 (10 uM) alone for 24 hours. To extract proteins from the collected cells, 50 uL of a lysis buffer (20 mM Tris, pH 7.4, 150 mM NaCl, 1% Triton-X-100, 2 mM NaF, 2 mM EDTA, 2 mM b-glycerophosphate, 5 mM sodium orthovanadate, 1 mM PMSF, leupeptin, aprotenin) was injected into each sample, and the cells were lysed. A sample buffer was added to each sample based on the measured total protein concentration, and the mixture was reacted at 100° C. for 5 minutes. After 5 uL was taken from the completely reacted sample and aliquoted into each well of an acrylamide gel, an immunoblotting method was performed, and the experimental results are illustrated in [FIG. 1].
For the immunoblotting method, a representative experiment was schematized from three or more independent experiments.
Referring to FIG. 1, it was confirmed that the levels of ACTA1, ACTC1, and ACTG2 were increased by MG132 compared to a control. Further, it was confirmed that the levels of ACTA1 and ACTG2 were increased when a UBR protein was knocked down. That is, it could be confirmed that muscle actin is an Arg/N-degron pathway substrate.

In the case of `COCCCCC(=O)Nc1cc(C(C)=O)ccc1Cl` [Compound 1, N-(5-acetyl-2-chlorophenyl)-5-methoxypentanamide], in the assay on UBR1 [1], the “level of R-nsP4” value was “increased”. In addition, the “level of ACTA1” value at UBR1 [2] was “further increased”.

Consider `COCCCCC(=O)Nc1cc(C(N)=O)ccc1Cl` [Compound 2, 4-chloro-3-(5-methoxypentanamido)benzamide], for which the “level of R-nsP4” value with UBR1 [1] was “increased”. Besides, the “level of ACTA1” value on UBR1 [2] is reported as “further increased”.

As for `CC(C)C[C@@H](C=O)NC(=O)[C@H](CC(C)C)NC(=O)[C@H](CC(C)C)NC(=O)OCc1ccccc1` [MG132] (Cbz-Leu-Leu-Leu-aldehyde), in the assay on L6 cell line, the “level of ACTA1” value is “increased”, the “level of ACTC1” value is recorded as “increased” and the “level of ACTG2” value is reported as “increased”.
